Laboratory results: ChEMBL document CHEMBL1201862, “PubChem BioAssay data set” (2004)
Active and inactive are the calls of the source.

Assays:
[1] = biological target: Troponin, cardiac muscle (Homo sapiens, UniProt P19429+P45379+P63316); experiment: Fluorescence-based biochemical high throughput dose response assay for activators of the calcium sensitivity of cardiac Regulated Thin Filaments (RTF). [Related pubchem assays (depositor defined):AID493008, AID493018, AID504382, AID504383]; format: protein-complex assay
[2] = test system: J774.A1; experiment: Confirmation of image-based Screening Assay for Inhibitors of Phagocytosis. [Related pubchem assays (depositor defined):AID1029, AID1643]; format: functional, cell-based; conditions: Mus musculus
[3] = HEK-293T viability loss after treatment – luminescence, T-cell screen hits, cytotoxicity control for TCR NF-kB inhibitor project, dose response (AID 489026); format: functional, cell-based;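 also: cells exposed to compound about 14 hours before the viability readout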
[4] = viability loss in Vero cells – cytotoxicity control for Vif-APOBEC3G degradation inhibitor project, dose response (AID 1117358); format: functional; conditions: Vero
[5] = biological target: Ephrin type-A receptor 4 (Mus musculus, UniProt Q03137); experiment: EphA4 ligand-binding antagonists – biochemical, colorimetric, mouse EphA4, primary screen (AID 689); format: functional
[6] = biological target: G-protein coupled receptor 55 (Homo sapiens, UniProt Q9Y2T6); experiment: selective activators of receptor GPR55 – imaging, U2OS cells, beta-arrestin-GFP redistribution, primary screen (AID 1961); format: functional
[7] = biological target: Intestinal-type alkaline phosphatase (Mus musculus, UniProt P24822); experiment: PubChem AID 488785; format: functional
[8] = biological target: Alkaline phosphatase, placental type (Homo sapiens, UniProt P05187); experiment: human placental alkaline phosphatase inhibition – biochemical, luminescence, confirmation (AID 1512); format: functional
[9] = biological target: Intestinal-type alkaline phosphatase (Homo sapiens, UniProt P09923); experiment: inhibition of human intestinal alkaline phosphatase – biochemical, dose response (AID 488876); format: functional
[10] = biological target: Mu-type opioid receptor (Homo sapiens, UniProt P35372); experiment: SAR Analysis of Antagonists of the MOR Receptor using an Image-Based Assay - Set 3. [Related pubchem assays (depositor defined):AID1777, AID1785, AID1786, AID1966, AID2133, AID2136, AID2284, AID2285, AID2420]; format: functional
[11] = biological target: Delta-type opioid receptor (Homo sapiens, UniProt P41143); experiment: SAR Analysis of Antagonists of the DOR Receptor using an Image-Based Assay - Set 3. [Related pubchem assays (depositor defined):AID1777, AID1785]; format: functional;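 also: U2OS cells expressing DOR1 and beta-arrestin GFP stimulated with 100 nM SNC80; imaging of GFP-tagged beta-arrestin moving into spots after receptor activation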
[12] = biological target: T1, Kappa-type opioid receptor (Homo sapiens, UniProt P41145); experiment: SAR analysis of small molecule antagonists of the kappa opioid receptor via a luminescent beta-arrestin assay - Set 3. [Related pubchem assays (depositor defined):AID1777, AID1778, AID1785, AID1786, AID1966, AID2133, AID2136, AID2285, AID2495]; format: functional
[13] = biological target: T1, Kappa-type opioid receptor; experiment: SAR analysis of Antagonists of the Kappa Opioid Receptor (KOR) using an Image-Based Assay - Set 4. [Related pubchem assays (depositor defined):AID1777, AID1785]; format: functional

T1 sequence (P41145 whole entry): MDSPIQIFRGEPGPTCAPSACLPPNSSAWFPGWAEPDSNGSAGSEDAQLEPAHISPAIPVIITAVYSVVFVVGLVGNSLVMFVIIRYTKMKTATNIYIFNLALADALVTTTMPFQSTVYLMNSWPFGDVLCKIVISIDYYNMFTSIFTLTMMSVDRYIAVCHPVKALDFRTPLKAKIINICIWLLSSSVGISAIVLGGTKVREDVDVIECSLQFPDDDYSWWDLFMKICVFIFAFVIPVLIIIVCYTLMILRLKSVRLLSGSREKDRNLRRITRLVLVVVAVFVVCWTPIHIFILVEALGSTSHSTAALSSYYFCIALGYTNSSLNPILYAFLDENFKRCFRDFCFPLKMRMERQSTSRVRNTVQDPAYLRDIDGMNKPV
Sequence of Mu-type opioid receptor (P35372 whole entry): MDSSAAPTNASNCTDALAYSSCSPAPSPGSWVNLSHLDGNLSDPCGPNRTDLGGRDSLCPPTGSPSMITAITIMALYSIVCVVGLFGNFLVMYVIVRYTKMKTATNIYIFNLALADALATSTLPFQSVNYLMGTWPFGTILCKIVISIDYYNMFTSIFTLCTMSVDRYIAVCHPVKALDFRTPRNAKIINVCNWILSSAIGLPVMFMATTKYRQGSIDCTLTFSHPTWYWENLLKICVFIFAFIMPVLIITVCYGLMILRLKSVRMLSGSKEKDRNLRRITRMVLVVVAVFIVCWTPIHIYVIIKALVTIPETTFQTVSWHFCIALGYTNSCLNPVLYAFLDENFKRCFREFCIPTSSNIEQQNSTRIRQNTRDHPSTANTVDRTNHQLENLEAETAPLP
Sequence of Intestinal-type alkaline phosphatase (Homo sapiens, UniProt P09923) (P09923 whole entry): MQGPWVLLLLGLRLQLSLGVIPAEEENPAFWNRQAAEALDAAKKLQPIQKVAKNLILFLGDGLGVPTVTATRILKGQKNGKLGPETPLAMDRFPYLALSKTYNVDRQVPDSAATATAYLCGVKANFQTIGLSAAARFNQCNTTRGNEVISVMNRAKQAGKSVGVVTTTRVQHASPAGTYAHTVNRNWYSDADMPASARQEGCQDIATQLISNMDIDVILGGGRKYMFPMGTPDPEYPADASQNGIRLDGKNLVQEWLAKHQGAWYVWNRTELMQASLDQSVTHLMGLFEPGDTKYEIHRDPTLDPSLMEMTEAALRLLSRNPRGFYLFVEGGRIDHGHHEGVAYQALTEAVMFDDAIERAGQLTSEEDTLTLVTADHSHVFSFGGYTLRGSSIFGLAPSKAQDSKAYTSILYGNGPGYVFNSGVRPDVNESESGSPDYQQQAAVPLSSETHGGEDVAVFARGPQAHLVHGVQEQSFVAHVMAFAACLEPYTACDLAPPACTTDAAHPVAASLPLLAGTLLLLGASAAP
Sequence of Ephrin type-A receptor 4 (Q03137 whole entry): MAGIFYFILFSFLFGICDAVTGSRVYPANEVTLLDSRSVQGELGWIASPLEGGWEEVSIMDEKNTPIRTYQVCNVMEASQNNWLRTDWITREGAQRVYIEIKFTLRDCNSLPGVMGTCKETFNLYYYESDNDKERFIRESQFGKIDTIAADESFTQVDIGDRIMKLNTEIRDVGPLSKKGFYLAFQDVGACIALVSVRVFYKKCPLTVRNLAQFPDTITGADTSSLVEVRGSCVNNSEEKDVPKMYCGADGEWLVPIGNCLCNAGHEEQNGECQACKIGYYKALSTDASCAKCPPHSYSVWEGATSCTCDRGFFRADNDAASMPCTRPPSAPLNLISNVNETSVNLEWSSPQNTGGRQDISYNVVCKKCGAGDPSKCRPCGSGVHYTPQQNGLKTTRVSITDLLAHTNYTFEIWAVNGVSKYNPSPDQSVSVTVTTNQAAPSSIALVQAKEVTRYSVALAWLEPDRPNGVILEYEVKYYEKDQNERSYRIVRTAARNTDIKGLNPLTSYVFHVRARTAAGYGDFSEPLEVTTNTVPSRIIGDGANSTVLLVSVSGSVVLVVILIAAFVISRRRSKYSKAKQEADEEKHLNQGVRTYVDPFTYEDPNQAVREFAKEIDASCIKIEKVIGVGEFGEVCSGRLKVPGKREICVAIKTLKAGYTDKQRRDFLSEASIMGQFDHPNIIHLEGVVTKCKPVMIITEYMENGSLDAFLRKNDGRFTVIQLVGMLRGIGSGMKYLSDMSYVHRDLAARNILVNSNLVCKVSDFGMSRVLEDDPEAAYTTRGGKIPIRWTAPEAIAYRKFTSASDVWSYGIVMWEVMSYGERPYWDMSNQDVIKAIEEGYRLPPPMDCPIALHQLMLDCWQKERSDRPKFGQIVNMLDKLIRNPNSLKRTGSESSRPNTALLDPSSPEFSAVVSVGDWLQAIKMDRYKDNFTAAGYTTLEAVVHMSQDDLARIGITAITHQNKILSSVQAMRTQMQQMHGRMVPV
Sequence of G-protein coupled receptor 55 (Q9Y2T6 whole entry): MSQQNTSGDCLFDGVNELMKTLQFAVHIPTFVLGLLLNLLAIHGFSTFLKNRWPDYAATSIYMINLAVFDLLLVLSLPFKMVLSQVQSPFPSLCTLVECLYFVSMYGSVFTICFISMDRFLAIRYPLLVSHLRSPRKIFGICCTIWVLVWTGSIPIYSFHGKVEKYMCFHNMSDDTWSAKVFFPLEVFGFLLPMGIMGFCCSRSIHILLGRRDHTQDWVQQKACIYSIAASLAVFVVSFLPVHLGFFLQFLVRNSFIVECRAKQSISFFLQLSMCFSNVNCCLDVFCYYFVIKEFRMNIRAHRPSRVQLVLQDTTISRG
Sequence of Delta-type opioid receptor (P41143 whole entry): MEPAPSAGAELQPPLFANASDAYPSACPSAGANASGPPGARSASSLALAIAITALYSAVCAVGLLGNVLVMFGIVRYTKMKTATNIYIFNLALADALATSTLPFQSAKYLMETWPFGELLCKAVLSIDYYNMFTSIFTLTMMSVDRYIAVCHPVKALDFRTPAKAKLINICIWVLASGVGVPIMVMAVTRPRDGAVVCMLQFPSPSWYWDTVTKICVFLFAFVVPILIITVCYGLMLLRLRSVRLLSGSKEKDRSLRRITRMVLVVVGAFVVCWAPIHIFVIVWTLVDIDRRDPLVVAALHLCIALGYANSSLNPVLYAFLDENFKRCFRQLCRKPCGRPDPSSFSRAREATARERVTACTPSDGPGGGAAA
Sequence of Intestinal-type alkaline phosphatase (Mus musculus, UniProt P24822) (P24822 whole entry): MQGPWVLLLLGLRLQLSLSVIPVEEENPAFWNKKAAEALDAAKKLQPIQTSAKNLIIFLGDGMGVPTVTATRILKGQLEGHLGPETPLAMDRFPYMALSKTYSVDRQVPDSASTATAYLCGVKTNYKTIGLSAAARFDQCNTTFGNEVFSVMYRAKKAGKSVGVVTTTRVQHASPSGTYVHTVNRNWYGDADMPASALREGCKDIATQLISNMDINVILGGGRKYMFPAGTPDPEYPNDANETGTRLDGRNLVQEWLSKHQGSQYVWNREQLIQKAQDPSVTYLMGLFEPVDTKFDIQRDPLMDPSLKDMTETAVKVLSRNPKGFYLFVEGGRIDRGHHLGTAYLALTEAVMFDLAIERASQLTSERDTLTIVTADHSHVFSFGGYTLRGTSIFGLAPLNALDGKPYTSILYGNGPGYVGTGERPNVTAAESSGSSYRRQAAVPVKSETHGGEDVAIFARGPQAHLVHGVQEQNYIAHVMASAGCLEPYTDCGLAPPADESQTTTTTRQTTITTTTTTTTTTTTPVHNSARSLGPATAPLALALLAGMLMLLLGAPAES
Sequence of Alkaline phosphatase, placental type (P05187 whole entry): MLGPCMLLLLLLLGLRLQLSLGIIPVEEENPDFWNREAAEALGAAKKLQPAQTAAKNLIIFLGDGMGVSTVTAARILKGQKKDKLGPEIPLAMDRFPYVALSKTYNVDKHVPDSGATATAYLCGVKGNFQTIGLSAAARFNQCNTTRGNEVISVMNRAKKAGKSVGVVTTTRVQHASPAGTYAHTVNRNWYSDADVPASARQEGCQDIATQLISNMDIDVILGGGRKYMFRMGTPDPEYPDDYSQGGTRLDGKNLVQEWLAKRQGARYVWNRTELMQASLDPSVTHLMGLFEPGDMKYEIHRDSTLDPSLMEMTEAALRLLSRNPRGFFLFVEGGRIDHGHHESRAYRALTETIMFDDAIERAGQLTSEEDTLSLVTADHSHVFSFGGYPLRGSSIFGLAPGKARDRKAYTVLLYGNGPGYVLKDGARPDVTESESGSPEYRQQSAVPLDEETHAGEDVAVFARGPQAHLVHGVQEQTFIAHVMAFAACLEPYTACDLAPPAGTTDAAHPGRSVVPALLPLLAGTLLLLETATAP

Structure (SMILES): Cc1nnc(SCC(=O)NC(C)(C)C)n1C1CCCCC1
- EC50 [1]: > 71.5 µM (inactive)

Structure (SMILES): COc1ccc(C2=NOC(C(=O)NCc3cccs3)C2)cc1OC (stereo not drawn)
- IC50 [2]: 609 nM (active)
- IC50 [3]: > 80 µM (inactive)
- CC50 [4]: > 40 µM (active)

Structure (SMILES): CCCCN1C(=O)/C(=C/C=C2\N(C)c3ccccc3C2(C)C)SC1=S
- IC50 [5]: 5.34 µM (active)
- EC50 [6]: 731 nM (active)

Structure (SMILES): C=C(C)c1cccc(C(C)(C)NC(=O)NC(c2ccccc2)c2ccc(OC)cc2)c1 (stereo not drawn)
- IC50 [7]: 7.54 µM (active)
- IC50 [8]: > 100 µM (inactive)
- IC50 [9]: 9.59 µM (active)

Structure (SMILES): O=C(Cn1c(=O)c2cccn2c2cccnc21)NCCCN1CCN(c2ccc3c(c2)OCO3)CC1
- IC50 [10]: > 32 µM (inactive)
- IC50 [11]: > 32 µM (inactive)
- IC50 [12]: 4.23 µM (active)
- IC50 [13]: 776 nM (active)
